These results are taken from patent US20030134859A1 (SANKYO COMPANY, LIMITED, priority 2000, published 2003).

Structures can show the parent of a compound that is named as a salt.

The test system of the first assay is human colon cancer cells COL-2-JCK. In words: Inhibition of colony forming activity in human colon cancer cells. The class given is cell-based. The following applies: 1 μM test compound; 10 days; sum of colony areas vs control. In short, it runs like this:
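COL-2-JCK cells seeded at 300 cells/well and grown 10 days at 37 °C, 5% CO2 with compound at 1 μM final (0.1% DMSO). Colonies stained with crystal violet in formalin; inhibition % = (1 − treated/control colony area)×100.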
As to “N-[4-(Pyrrolidinylsulfonyl)phenyl]-(2-chloro-5-nitrophenyl)carboxamide [Example 152]”, the “Inhibition Rate (%) against the colony forming activity” value was 24.0%.

Take `Cc1cc(NS(=O)(=O)c2ccc(NC(=O)c3cc([N+](=O)[O-])ccc3Cl)cc2)no1` [Example 99]: the “Inhibition Rate (%) against the colony forming activity” value was found to be 32.0%.

Staying with this assay, now noted: Homo sapiens, 240 h; 1 μM test compound; 10 days; sum of colony areas vs control; read-out: Inhibition Rate (%) against the colony forming activity.
Consider `Cc1cnc(NC(=O)c2cc([N+](=O)[O-])ccc2Cl)s1` [Example 4, N-(5-Methylthiazol-2-yl)-(2-chloro-5-nitrophenyl)carboxamide], for which the inhibition (usually how much of the control response was suppressed) at 1 µM came out at 62%. The same measure, in the same setting: with `O=C(Nc1cccc2cccnc12)c1cc([N+](=O)[O-])ccc1Cl` [Example 57, N-(8-Quinolinyl)-(2-chloro-5-nitrophenyl)carboxamide] the figure was 5%. The same measure, in the same setting: the same measure for `CC(C)(C)c1cc(NC(=O)c2cc([N+](=O)[O-])ccc2Cl)cc(C(C)(C)C)c1O` [Example 29, N-(3,5-Di-t-butyl-4-hydroxyphenyl)-(2-chloro-5-nitrophenyl)carboxamide]: 41%; for `O=C(Nc1cccc(-c2ccccc2)c1)c1cc([N+](=O)[O-])ccc1Cl` [Example 5, N-(3-Phenylphenyl)-(2-chloro-5-nitrophenyl)carboxamide]: 26%. On the same count and under the same terms, the same measure for `O=C(Nc1ccc(S(=O)(=O)Nc2nccs2)cc1)c1cc([N+](=O)[O-])ccc1Cl` [Example 96, N-[4-(Thiazol-2-yl)aminosulfonyl]phenyl-(2-chloro-5-nitrophenyl)carboxamide]: 17%; for `Cc1ccc(NC(=O)c2cc([N+](=O)[O-])ccc2Cl)nc1` [Example 52, N-(5-Methylpyridin-2-yl)-(2-chloro-5-nitrophenyl)carboxamide]: 17%; for `O=C(Nc1ccc(S(=O)(=O)Nc2ccc(Cl)nn2)cc1)c1cc([N+](=O)[O-])ccc1Cl` [Example 102, N-[4-[(6-Chloropyridazin-3-yl)aminosulfonyl]phenyl]-(2-chloro-5-nitrophenyl)carboxamide]: 26%. As to `O=C(Nc1nc(-c2cccnc2)cs1)c1cc([N+](=O)[O-])ccc1Cl` [Example 37, N-[4-(3-Pyridyl)thiazol-2-yl)-(2-chloro-5-nitrophenyl)carboxamide], the inhibition at 1 µM was determined as 52%.

Regarding `O=C(Nc1ccc(-c2ccccc2)cc1)c1cc([N+](=O)[O-])ccc1Cl` [Example 2, N-(4-Phenylphenyl)-(2-chloro-5-nitrophenyl)carboxamide], the inhibition at 1 µM came out at 8%. Take `CCCCCc1ccc(NC(=O)c2cc([N+](=O)[O-])ccc2Cl)cc1` [Example 16, N-(4-Pentylphenyl)-(2-chloro-5-nitrophenyl)carboxamide]: the inhibition at 1 µM stood at 48%.

Regarding `O=C(Nc1cccc(NS(=O)(=O)c2ccccc2)c1)c1cc([N+](=O)[O-])ccc1Cl` [Example 30, N-(3-Benzensulfonylaminophenyl)-(2-chloro-5-nitrophenyl)carboxamide], the inhibition at 1 µM came to 42%. The same measure, in the same setting: the same measure for `O=C(Nc1ccccc1-c1ccccc1)c1cc([N+](=O)[O-])ccc1Cl` [Example 7, N-(2-Phenylphenyl)-(2-chloro-5-nitrophenyl)carboxamide]: 24%; for `N#Cc1ccc(NC(=O)c2cc([N+](=O)[O-])ccc2Cl)cc1` [Example 20, N-(4-Cyanophenyl)-(2-chloro-5-nitrophenyl)carboxamide]: 37%.

As for `O=C(Nc1nc(-c2ccccc2)cs1)c1cc([N+](=O)[O-])ccc1Cl` [Example 35, N-(4-Phenylthiazol-2-yl)-(2-chloro-5-nitrophenyl)carboxamide], the inhibition at 1 µM was 15%. Same read-out and setting: with `O=C(Nc1nc(-c2ccccn2)cs1)c1cc([N+](=O)[O-])ccc1Cl` [Example 38, N-[4-(2-Pyridyl)thiazol-2-yl)-(2-chloro-5-nitrophenyl)carboxamide] the figure was 99.9%; with `Cc1cccc(NC(=O)c2cc([N+](=O)[O-])ccc2Cl)n1` [Example 51, N-(6-Methylpyridin-2-yl)-(2-chloro-5-nitrophenyl)carboxamide], 15%; with `COc1ccc(NC(=O)c2cc([N+](=O)[O-])ccc2Cl)cc1-c1ccccc1` [Example 6, N-(4-Methoxy-3-phenyl)phenyl-(2-chloro-5-nitrophenyl)carboxamide], 22%.

The next assay has as its system TNF-α production. In words: Inhibitory activity against cytokine (TNF-α) production in LPS-stimulated RAW264.7 cells. It is filed as cell-based, mouse. The following applies: Mus musculus, RAW264.7, 15 h, 1 μM test compound, LPS 10 ng/mL. In short, it runs like this: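 Mouse RAW264.7 macrophages (5,000 cells/well) stimulated with 10 ng/mL LPS (final) and treated with test compound at 1 μM final for 15 h at 37 °C. Supernatant mouse TNF-α measured by ELISA; % inhibition = 100−(A−B)/(C−B)×100, using unstimulated and LPS-only controls.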
`CCCCCCNc1ccc(-c2ccc(NC(=O)c3cc([N+](=O)[O-])ccc3Cl)cc2)cc1` [Example 195, N-[4-[4-(N-Hexylamino)phenyl]phenyl]-(2-chloro-5-nitrophenyl)carboxamide] yielded an inhibition at 1 µM of 16.1%. The same measure, in the same setting: the same measure for `Cc1cnc(NC(=O)c2cc([N+](=O)[O-])ccc2Cl)s1` [Example 4, N-(5-Methylthiazol-2-yl)-(2-chloro-5-nitrophenyl)carboxamide]: 18.5%; for `CCCCCCCCN(CCC)c1ccc(-c2ccc(NC(=O)c3cc([N+](=O)[O-])ccc3Cl)cc2)cc1` [Example 224, N-[4-[4-(N-Octyl-N-propylamino)phenyl]phenyl]-(2-chloro-5-nitrophenyl)carboxamide]: 22.4%; for `CCCCCCN(CC)c1ccc(-c2ccc(NC(=O)c3cc([N+](=O)[O-])ccc3Cl)cc2)cc1` [Example 197, N-[4-[4-(N-Ethyl-N-hexylamino)phenyl]phenyl]-(2-chloro-5-nitrophenyl)carboxamide]: 21.6%. The same measure, in the same setting: the same measure for `CC(C)(C)c1cc(NC(=O)c2cc([N+](=O)[O-])ccc2Cl)cc(C(C)(C)C)c1O` [Example 29, N-(3,5-Di-t-butyl-4-hydroxyphenyl)-(2-chloro-5-nitrophenyl)carboxamide]: 22.9%; for `Cc1ccc(NC(=O)c2cc([N+](=O)[O-])ccc2Cl)nc1` [Example 52, N-(5-Methylpyridin-2-yl)-(2-chloro-5-nitrophenyl)carboxamide]: 16.2%.

`O=C(Nc1nc(-c2cccnc2)cs1)c1cc([N+](=O)[O-])ccc1Cl` [Example 37, N-[4-(3-Pyridyl)thiazol-2-yl)-(2-chloro-5-nitrophenyl)carboxamide] came in with an inhibition at 1 µM of 16%. On the same count and under the same terms, the same measure for `O=C(Nc1ccc(-c2ccccc2)cc1)c1cc([N+](=O)[O-])ccc1Cl` [Example 2, N-(4-Phenylphenyl)-(2-chloro-5-nitrophenyl)carboxamide]: 24.5%; for `O=C(Nc1ccc(-c2ccccn2)cc1)c1cc([N+](=O)[O-])ccc1Cl` [Example 8, N-[4-(2-Pyridyl)phenyl]-(2-chloro-5-nitrophenyl)carboxamide]: 18.9%; for `CCCCCc1ccc(NC(=O)c2cc([N+](=O)[O-])ccc2Cl)cc1` [Example 16, N-(4-Pentylphenyl)-(2-chloro-5-nitrophenyl)carboxamide]: 19%. Same read-out and setting: with `CCCCCCN(C)c1ccc(-c2ccc(NC(=O)c3cc([N+](=O)[O-])ccc3Cl)cc2)cc1` [Example 196, N-[4-[4-(N-Hexyl-N-methylamino)phenyl]phenyl]-(2-chloro-5-nitrophenyl)carboxamide] the figure was 15.3%. On the same count and under the same terms, with `O=C(Nc1c(Cl)ncnc1Cl)c1cc([N+](=O)[O-])ccc1Cl` [Example 81, N-(4,6-Dichloropyrimidin-5-yl)-(2-chloro-5-nitrophenyl)carboxamide] the figure was 32%; with `CCCCCCCCNc1ccc(-c2ccc(NC(=O)c3cc([N+](=O)[O-])ccc3Cl)cc2)cc1` [Example 219, N-[4-[4-(N-Octylamino)phenyl]phenyl]-(2-chloro-5-nitrophenyl)carboxamide], 21.7%; with `O=C(Nc1ccc(CCNC(=S)Nc2cccnc2)cc1)c1cc([N+](=O)[O-])ccc1Cl` [Example 273, N-[4-[2-(Pyridin-3-yl)aminothiocarbonylaminoethyl]phenyl]-(2-chloro-5-nitrophenyl)carboxamide], 19.9%. Molecule `CCCCCCCCN(CCCCCC)c1ccc(-c2ccc(NC(=O)c3cc([N+](=O)[O-])ccc3Cl)cc2)cc1` [Example 220, N-[4-[4-(N-Hexyl-N-octylamino)phenyl]phenyl]-(2-chloro-5-nitrophenyl)carboxamide mono-hydrochloride] had an inhibition at 1 µM of 16.3%. `CC(C)(C)c1cc(C(=O)Nc2ccc(NC(=O)c3cc([N+](=O)[O-])ccc3Cl)cc2)cc(C(C)(C)C)c1O` [Example 157, N-[4-[(3,5-di-tert-Butyl-4-hydroxybenzoyl)amino]phenyl]-(2-chloro-5-nitrophenyl)carboxamide]: the inhibition at 1 µM came out at 38.6%.

The molecule `CCCCCCCCN(CCCC)c1ccc(-c2ccc(NC(=O)c3cc([N+](=O)[O-])ccc3Cl)cc2)cc1.Cl` [Example 223, N-[4-[4-(N-Butyl-N-octylamino)phenyl]phenyl]-(2-chloro-5-nitrophenyl)carboxamide mono-hydrochloride] showed an inhibition at 1 µM of 28.2%. Same read-out and setting: with `CC(C)(C)OC(=O)Nc1cccc(-c2csc(NC(=O)c3cc([N+](=O)[O-])ccc3Cl)n2)c1` [Example 234, N-[4-(3-tert-Butoxycarbonylaminophenyl)thiazol-2-yl]-(2-chloro-5-nitrophenyl)carboxamide] the figure was 32.5%; with `CS(=O)(=O)N(c1ccc(-c2ccc(NC(=O)c3cc([N+](=O)[O-])ccc3Cl)cc2)cc1)S(C)(=O)=O` [Example 235, N-[4-[4-(N,N-Dimethanesulfonylamino)phenyl]phenyl]-(2-chloro-5-nitrophenyl)carboxamide], 40.2%; with `Cc1ccc(-c2nc(NC(=O)c3cc([N+](=O)[O-])ccc3Cl)sc2C)cc1Cl` [Example 46, N-[4-(3-Chloro-4-methylphenyl)-5-methylthiazol-2-yl]-(2-chloro-5-nitrophenyl)carboxamide], 30.7%. The same measure, in the same setting: the same measure for `O=C(Nc1nc(-c2ccc(F)c(F)c2)cs1)c1cc([N+](=O)[O-])ccc1Cl` [Example 111, N-[4-(3,4-Difluorophenyl)thiazol-2-yl]-(2-chloro-5-nitrophenyl)carboxamide]: 28.7%. Still for that read-out and setting: with `O=C(Nc1ccc2c3c(cccc13)CC2)c1cc([N+](=O)[O-])ccc1Cl` [Example 54, N-(Acenaphthen-5-yl)-(2-chloro-5-nitrophenyl)carboxamide] the figure was 16.8%; with `CCCN(CC)c1ccc(NC(=O)c2cc([N+](=O)[O-])ccc2Cl)cc1` [Example 189, N-[4-(N-Ethyl-N-propylamino)phenyl]-(2-chloro-5-nitrophenyl)carboxamide], 16.3%; with `CCCCCCN(CCCCCC)c1ccc(NC(=O)c2cc([N+](=O)[O-])ccc2Cl)cc1` [Example 138, N-[4-(N,N-di-n-Hexylamino)phenyl]-(2-chloro-5-nitrophenyl)carboxamide], 17.8%.
